Each structure is given as a SMILES string.

This assay has as its target T1, RIP1 (Homo sapiens, UniProt Q13546).
T1 sequence (Q13546 1-671): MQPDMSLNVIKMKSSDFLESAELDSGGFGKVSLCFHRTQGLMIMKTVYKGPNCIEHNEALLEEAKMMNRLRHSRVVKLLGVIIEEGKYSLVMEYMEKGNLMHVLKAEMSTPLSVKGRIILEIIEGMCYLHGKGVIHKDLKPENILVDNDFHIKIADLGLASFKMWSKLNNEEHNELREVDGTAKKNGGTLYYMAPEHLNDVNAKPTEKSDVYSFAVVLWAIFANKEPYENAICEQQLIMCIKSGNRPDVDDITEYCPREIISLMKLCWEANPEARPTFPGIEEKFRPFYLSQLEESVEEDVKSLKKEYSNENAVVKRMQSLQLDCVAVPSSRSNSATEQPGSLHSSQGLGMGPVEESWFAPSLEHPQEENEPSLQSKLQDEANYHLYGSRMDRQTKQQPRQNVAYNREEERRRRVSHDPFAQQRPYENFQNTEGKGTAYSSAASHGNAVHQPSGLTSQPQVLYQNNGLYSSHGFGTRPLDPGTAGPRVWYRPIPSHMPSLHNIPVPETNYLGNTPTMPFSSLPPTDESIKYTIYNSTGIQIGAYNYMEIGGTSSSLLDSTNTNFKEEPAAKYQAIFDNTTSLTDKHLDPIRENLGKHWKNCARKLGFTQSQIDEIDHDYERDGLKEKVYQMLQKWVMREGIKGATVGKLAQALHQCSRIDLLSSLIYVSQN
As to the kind of experiment: Cellular RIP1 inhibitory activity: HT-29 necroptosis (TNFα/SMAC mimetic/zVAD-FMK) CellTiter-Glo viability assay. The class given is cell-based. Particulars: HT-29 cells, TNF-α 10 ng/ml + SMAC mimetic 6 μM + zVAD-FMK 10 μM, 20 hours, geometric mean, read-out: EC50 Values of in vitro Cellular RIP1 Inhibitory Activity. A general note: Cellular ATP, detected with luciferase, serves as a proxy for viable cell number.
The term EC50 denotes the concentration giving half of the maximal effect. Consider `CCN(Cc1cncs1)C(=O)C1CCN(c2ncc(F)c(-c3c(C)cnn3C)n2)CC1` [Compound 99, 1-(4-(1,4-dimethyl-1H-pyrazol-5-yl)-5-fluoropyrimidin-2-yl)-N-ethyl-N-(thiazol-5-ylmethyl)piperidine-4-carboxamide], for which the concentration giving a half-maximal response (EC50) was in the range of 0.1 to 100 nM. The same measure for `Cc1nnc(CNC(=O)C2CCN(c3ncc(F)c(-c4c(C)cnn4C)n3)CC2)s1` [Compound 46, 1-(4-(1,4-dimethyl-1H-pyrazol-5-yl)-5-fluoropyrimidin-2-yl)-N-((5-methyl-1,3,4-thiadiazol-2-yl)methyl)piperidine-4-carboxamide]: 1000 to 10000 nM.

As to `[2H]C([2H])(NC(=O)C1CCN(c2ncc(F)c(-c3nnc(C)s3)n2)CC1)c1cc(F)cc(F)c1F` [Compound 61, 1-(5-fluoro-4-(5-methyl-1,3,4-thiadiazol-2-yl)pyrimidin-2-yl)-N-((2,3,5-trifluorophenyl)methyl-d2)piperidine-4-carboxamide], the EC50 was in the range of 0.1 to 100 nM. The same measure for `Cc1cnn(C)c1-c1nc(N2CCC(C(=O)N(C)Cc3cc(C)n(C)n3)CC2)ncc1F` [Compound 79, N-((1,5-dimethyl-1H-pyrazol-3-yl)methyl)-1-(4-(1,4-dimethyl-1H-pyrazol-5-yl)-5-fluoropyrimidin-2-yl)-N-methylpiperidine-4-carboxamide]: 100 to 1000 nM; for `Cc1nc(C)c(CN(C)C(=O)C2CCN(c3ncc(F)c(-c4c(C)cnn4C)n3)CC2)s1` [Compound 69, 1-(4-(1,4-dimethyl-1H-pyrazol-5-yl)-5-fluoropyrimidin-2-yl)-N-((2,4-dimethylthiazol-5-yl)methyl)-N-methylpiperidine-4-carboxamide]: 100 to 1000 nM. The same measure for `O=C(C1CCN(c2ncc(F)cn2)CC1)N(O)Cc1cc(F)cc(F)c1` [Compound 30, N-(3,5-difluorobenzyl)-1-(5-fluoropyrimidin-2-yl)-N-hydroxypiperidine-4-carboxamide]: 100 to 1000 nM; for `Cc1cnn(C)c1-c1cc(OC2CC(C(=O)N(O)Cc3cc(F)cc(F)c3)C2)c(F)cn1` (stereo not shown) [Compound 53]: 0.1 to 100 nM.

Consider `[2H]C([2H])([2H])N(C(=O)C1CCN(c2ncc(F)c(-n3nc(C)nc3C)n2)CC1)C([2H])([2H])c1cc(F)cc(F)c1F` [Compound 76, 1-(4-(3,5-dimethyl-1H-1,2,4-triazol-1-yl)-5-fluoropyrimidin-2-yl)-N-(methyl-d3)-N-((2,3,5-trifluorophenyl)methyl-d2)piperidine-4-carboxamide], for which the 50% effective concentration (EC50) fell in the range of 0.1 to 100 nM. The same measure for `Cc1cnn(C)c1-c1nc(N2CCC(C(=O)N(O)Cc3nccn3C)CC2)ncc1F` [Compound 39, 1-(4-(1,4-dimethyl-1H-pyrazol-5-yl)-5-fluoropyrimidin-2-yl)-N-hydroxy-N-((1-methyl-1H-imidazol-2-yl)methyl)piperidine-4-carboxamide]: 1000 to 10000 nM; for `Cc1nc(C)n(-c2nc(N3CCC(C(=O)N(C)Cc4cc(F)cc(F)c4F)CC3)ncc2F)n1` [Compound 65, 1-(4-(3,5-dimethyl-1H-1,2,4-triazol-1-yl)-5-fluoropyrimidin-2-yl)-N-methyl-N-(2,3,5-trifluorobenzyl)piperidine-4-carboxamide]: 0.1 to 100 nM. The same measure for `Cc1ncc(CNC(=O)C2CCN(c3ncc(F)c(-c4c(C)cnn4C)n3)CC2)s1` [Compound 50, 1-(4-(1,4-dimethyl-1H-pyrazol-5-yl)-5-fluoropyrimidin-2-yl)-N-((2-methylthiazol-5-yl)methyl)piperidine-4-carboxamide]: 100 to 1000 nM; for `Cc1cnn(C)c1-c1nc(N2CCC(C(=O)N(O)Cc3ccnc(F)c3)CC2)ncc1F` [Compound 20, 1-(4-(1,4-dimethyl-1H-pyrazol-5-yl)-5-fluoropyrimidin-2-yl)-N-((2-fluoropyridin-4-yl)methyl)-N-hydroxypiperidine-4-carboxamide]: 0.1 to 100 nM; for `Cc1cnn(C)c1-c1nc(N2CCC(C(=O)N[C@H](CO)c3ccccc3)CC2)ncc1F` [Compound 36, (S)-1-(4-(1,4-dimethyl-1H-pyrazol-5-yl)-5-fluoropyrimidin-2-yl)-N-(2-hydroxy-1-phenylethyl)piperidine-4-carboxamide]: 1000 to 10000 nM. Take `Cc1cnn(C)c1-c1nc(N2CCC(C(=O)N(O)Cc3cncc(F)c3)CC2)ncc1F` [Compound 37, 1-(4-(1,4-dimethyl-1H-pyrazol-5-yl)-5-fluoropyrimidin-2-yl)-N-((5-fluoropyridin-3-yl)methyl)-N-hydroxypiperidine-4-carboxamide]: the EC50 is 0.1 to 100 nM. The same measure for `Cc1cnn(C)c1-c1cc(N2CCC(C(=O)NCc3cc(F)cc(F)c3)CC2)ncn1` [Compound 42, N-(3,5-difluorobenzyl)-1-(6-(1,4-dimethyl-1H-pyrazol-5-yl)pyrimidin-4-yl)piperidine-4-carboxamide]: 100 to 1000 nM; for `[2H]C([2H])(NC(=O)C1CCN(c2ncc(F)c(-c3c(C)cnn3C)n2)CC1)c1cc(F)cc(F)c1F` [Compound 60, 1-(4-(1,4-dimethyl-1H-pyrazol-5-yl)-5-fluoropyrimidin-2-yl)-N-((2,3,5-trifluorophenyl)methyl-d2)piperidine-4-carboxamide]: 0.1 to 100 nM. `CCN(Cc1ccn(C)n1)C(=O)C1CCN(c2ncc(F)c(-c3c(C)cnn3C)n2)CC1` [Compound 82, 1-(4-(1,4-dimethyl-1H-pyrazol-5-yl)-5-fluoropyrimidin-2-yl)-N-ethyl-N-((1-methyl-1H-pyrazol-3-yl)methyl)piperidine-4-carboxamide]: the EC50 is 0.1 to 100 nM.

As for `CCN(Cc1sc(C)nc1C)C(=O)C1CCN(c2ncc(F)c(-c3c(C)cnn3C)n2)CC1` [Compound 70, 1-(4-(1,4-dimethyl-1H-pyrazol-5-yl)-5-fluoropyrimidin-2-yl)-N-((2,4-dimethylthiazol-5-yl)methyl)-N-ethylpiperidine-4-carboxamide], the EC50 lay in the range of 1000 to 10000 nM. The same measure for `Cc1cnn(C)c1-c1nc(N2CCC(C(=O)NCc3cc(C)n(C)n3)CC2)ncc1F` [Compound 43, N-((1,5-dimethyl-1H-pyrazol-3-yl)methyl)-1-(4-(1,4-dimethyl-1H-pyrazol-5-yl)-5-fluoropyrimidin-2-yl)piperidine-4-carboxamide]: 1000 to 10000 nM. For `Cc1nc(CNC(=O)C2CCN(c3ncc(F)c(-c4c(C)cnn4C)n3)CC2)c(C)s1` [Compound 56, 1-(4-(1,4-dimethyl-1H-pyrazol-5-yl)-5-fluoropyrimidin-2-yl)-N-((2,5-dimethylthiazol-4-yl)methyl)piperidine-4-carboxamide], the EC50 lay within 0.1 to 100 nM.

As for `Cc1cnn(C)c1-c1nc(N2CCC(C(=O)N(C)Cc3nc(C)c(C)s3)CC2)ncc1F` [Compound 90, 1-(4-(1,4-dimethyl-1H-pyrazol-5-yl)-5-fluoropyrimidin-2-yl)-N-((4,5-dimethylthiazol-2-yl)methyl)-N-methylpiperidine-4-carboxamide], the EC50 lay in the range of 0.1 to 100 nM. Turning to `[2H]C([2H])([2H])N(C(=O)C1CCN(c2ncc(F)c(-c3ncnn3C)n2)CC1)C([2H])([2H])c1cc(F)cc(F)c1F` [Compound 75, 1-(5-fluoro-4-(1-methyl-1H-1,2,4-triazol-5-yl)pyrimidin-2-yl)-N-(methyl-d3)-N-((2,3,5-trifluorophenyl)methyl-d2)piperidine-4-carboxamide], the EC50 fell in the range of 0.1 to 100 nM.

For the compound `Cc1cnn(C)c1-c1nc(N2CCC(C(=O)N(O)Cc3ccccc3)CC2)ncc1F` [Compound 33, N-benzyl-1-(4-(1,4-dimethyl-1H-pyrazol-5-yl)-5-fluoropyrimidin-2-yl)-N-hydroxypiperidine-4-carboxamide], the EC50 was 0.1 to 100 nM. The same measure for `Cc1cnn(C)c1-c1nc(N2CCC(C(=O)N(O)Cc3ccncc3F)CC2)ncc1F` [Compound 11, 1-(4-(1,4-dimethyl-1H-pyrazol-5-yl)-5-fluoropyrimidin-2-yl)-N-((3-fluoropyridin-4-yl)methyl)-N-hydroxypiperidine-4-carboxamide]: 0.1 to 100 nM; for `Cc1cnn(C)c1-c1nc(N2CCC(C(=O)NCc3nccs3)CC2)ncc1F` [Compound 59, 1-(4-(1,4-dimethyl-1H-pyrazol-5-yl)-5-fluoropyrimidin-2-yl)-N-(thiazol-2-ylmethyl)piperidine-4-carboxamide]: 100 to 1000 nM; for `Cc1cnn(C)c1-c1nc(N2CCC(C(=O)NCc3nc(C)c(C)s3)CC2)ncc1F` [Compound 49, 1-(4-(1,4-dimethyl-1H-pyrazol-5-yl)-5-fluoropyrimidin-2-yl)-N-((4,5-dimethylthiazol-2-yl)methyl)piperidine-4-carboxamide]: 100 to 1000 nM.

Regarding `CCN(Cc1cc(F)cc(F)c1)C(=O)C1CCN(c2cc(-c3c(C)cnn3C)ncn2)CC1` [Compound 89, N-(3,5-difluorobenzyl)-1-(6-(1,4-dimethyl-1H-pyrazol-5-yl)pyrimidin-4-yl)-N-ethylpiperidine-4-carboxamide], the EC50 fell in the range of 100 to 1000 nM. The same measure for `Cc1cnn(C)c1-c1nc(N2CCC(C(=O)NCc3cc(F)cc(F)c3)CC2)ncc1F` [Compound 62, N-(3,5-difluorobenzyl)-1-(4-(1,4-dimethyl-1H-pyrazol-5-yl)-5-fluoropyrimidin-2-yl)piperidine-4-carboxamide]: 0.1 to 100 nM.
